The source of these data is patent publication US5032591A, “Pharmaceutical preparations” (Beecham Group p.l.c., priority 1988, dated 1991).

The test concerns conscious male spontaneously hypertensive rats (SHR). Briefly: anti-hypertensive response: area under the control group blood pressure curve (mean arterial blood pressure, indwelling catheter) in conscious male spontaneously hypertensive rats. It counts as in vivo. The note with it: cromakalim 0.075 mg/kg po, n=10. As for the experimental part: Mean arterial blood pressures were measured from an indwelling catheter as described by Buckingham 1976 J. Pharm. Pharmac Vol. 28, pp 459-461. 1. Calculation of area under the control group blood pressure curve (AUC). Group mean arterial blood pressure values were calculated as % change from the pretreatment baseline. For each drug treatment group the area under the control group blood pressure curve was calculated using a trapezoidal method. […] Predicted AUC values were arrived at by combining values for each treatment given alone.

Regarding `CC1(C)Oc2ccc(C#N)cc2[C@@H](N2CCCC2=O)[C@@H]1O` (racemic) [Cromakalim, (±)-6-cyano-3,4-dihydro-2,2-dimethyl-trans-4-(2-oxo-1-pyrrolidinyl)-2H-benzo[b]pyran-3-ol], for the setting “0-2 h”, the “AUC (0-2 h)” value is 1941. Moreover, the “AUC (0-4 h)” value (0-4 h) was determined as 2981.
